Data reported in patent publication US11286258B2, “Nature-inspired anticancer and antibacterial motifs and pharmaceutical composition thereof” (University of Sharjah, priority 2020, dated 2022).
Converted amounts (≈) assume the structure as drawn. Blank lines part the entries; values can stand above or below the compound they belong to.

Columns and labels:
[1] = test system: MRSA-ATCC33591; experiment: MIC broth microdilution, MRSA ATCC33591; assay type: cell-based, Staphylococcus aureus; conditions: Staphylococcus aureus; overnight incubation, Mueller-Hinton broth; read-out: MIC MRSA-ATCC33591
Experimental: (§1) Antibacterial activity: The compounds were tested for the minimum inhibitory concentrations (MIC), which is the lowest concentration of a chemical required to inhibit visible microbial growth following overnight incubation. MIC values were determined using broth microdilution method according to the Clinical and Laboratory Standards Institute guidelines (CLSI, 2015, M07-A10). Mueller-Hinton broth was used as a culture medium in all the experiments. Exponentially growing bacterial cells were prepared in Mueller-Hinton broth at a concentration of approximately 5×10^5 CFU/mL. Two-fold serial dilutions of the test compound (8 concentrations ranged between 100-0.78 μg/mL) were tested. […] In each experiment, solvent (DMSO) was used as a negative control, un-treated control (composing of bacteria in Mueller-Hinton broth) was used as a growth control, blank (culture media alone) was used as sterility control. The 96-well microplate with the test compounds was incubated overnight at 37° C. Turbidity in wells indicated bacterial growth.
(§2) The compounds were tested on six MDR Gram-positive bacteria including three clinical isolates of methicillin-resistant Staphylococcus aureus (MRSA-1, MRSA-2 and MRSA-3) and three reference MRSA strains (ATCC33591, ATCC33592 and ATCC700699). They were also tested on three MDR Gram-negative bacteria including New Delhi metallo-beta-lactamase (NDM-1) positive, carbapenem-resistant E. coli (ATCC BAA2469), extended-spectrum beta-lactamase (ESBL) producing, colistin-resistant E. coli (CDC-AR-0346) and carbapenem-resistant Acinetobacter baumannii (ATCC BAA1605), in addition to two non-MDR bacteria from the same species, namely E. coli (ATCC 25922) Acinetobacter baumannii (ATCC 19606).

[2] = test system: MRSA-ATCC33592; experiment: MIC broth microdilution, MRSA ATCC33592; assay type: cell-based, Staphylococcus aureus; conditions: Staphylococcus aureus; overnight incubation, Mueller-Hinton broth; read-out: MIC MRSA-ATCC33592
Experimental: as §1, §2

[3] = test system: E. coli ATCC25922; experiment: MIC broth microdilution, E. coli ATCC25922; assay type: cell-based, Escherichia coli; conditions: Escherichia coli, ATCC25922; not MDR; overnight incubation
Experimental: as §1, §2

[4] = test system: E. coli ATCC BAA2469 (NDM-1 carbapenem-resistant); experiment: MIC broth microdilution, E. coli ATCC BAA2469; assay type: cell-based, Escherichia coli; conditions: overnight incubation; for MIC: Escherichia coli, ATCCBAA2469, MDR
Experimental: as §1, §2

[5] = test system: Acinetobacter baumannii ATCC 19606; experiment: MIC broth microdilution, A. baumannii ATCC 19606; assay type: cell-based; conditions: Acinetobacter baumannii, ATCC19606; not MDR; overnight incubation
Experimental: as §1, §2

[6] = test system: Acinetobacter baumannii ATCC BAA1605 (carbapenem-resistant); experiment: MIC broth microdilution, A. baumannii ATCC BAA1605; assay type: cell-based; conditions: for MIC: Acinetobacter baumannii, ATCCBAA1605, MDR, overnight incubation
Experimental: as §1, §2

[7] = test system: 6 MRSA strains; experiment: MIC, panel of 6 MRSA strains; assay type: cell-based; conditions: Staphylococcus aureus, across the panel of tested Gram-positive strains, read-out: MIC against all the 6 MRSA strains
Experimental: as §1, §2

[8] = test system: MDR E. coli strains; experiment: MIC, both MDR E. coli strains; assay type: cell-based; conditions: Escherichia coli, ATCCBAA2469; across ATCC BAA2469 and CDC-AR-0346
Experimental: as §1
The compounds were tested on six MDR Gram-positive bacteria including three clinical isolates of methicillin-resistant Staphylococcus aureus (MRSA-1, MRSA-2 and MRSA-3) and three reference MRSA strains (ATCC33591, ATCC33592 and ATCC700699). […]

[9] = test system: HCT-116; experiment: MTT cell viability, HCT-116; assay type: cell-based; conditions: Homo sapiens, colon cancer, 48 h of drug treatment, average of three experiments
Text: (§3) Cell culture: In this study five different cancer cell lines were used, human lung carcinoma (A549), human breast adenoma (MCF-7), Cervical carcinoma (Hela), hepatocellular carcinoma (Hep3B), and colorectal adenocarcinoma (HCT-116). These cells were obtained from the European Collection of Cell Cultures (ECACC, UK). Hep3B cells were maintained in Dulbecco's Modified Eagle Medium (DMEM: Sigma-Aldrich), and the four other cell lines were maintained in Roswell Park Memorial Institute medium (RPMI, Sigma-Aldrich, St. Louis, Mo., USA), which was supplemented with 10% fetal bovine serum (FBS, Sigma-Aldrich) and 1% penicillin/streptomycin (Sigma-Aldrich). Cells were incubated all the time at 37° C. in a humidified atmosphere of 5% CO2. Cell viability studies: Cell viability was assessed using the MTT assay as described before. In brief, all cancer cell lines were seeded at a density of 4×10^4/well in 96 well flat-bottom plates. After 24 h from seeding, cells were treated with the synthesized compounds and left for an incubation period of 48 h. Upon reaching the indicated time point, the media was removed and replaced with 200 μL fresh media containing 0.5 mg/mL of MTT tetrazolium dye (Sigma-Aldrich). Cells were then incubated with MTT solution for 2 h at 37° C. The resultant formazan crystals were dissolved in 200 μl/well of DMSO and absorbance was measured at 570 nm using a microplate reader (Thermo Scientific).

[10] = test system: HELA; experiment: MTT cell viability, HELA; assay type: cell-based; conditions: Homo sapiens, cervical cancer, 48 h of drug treatment, average of three experiments
Text: as §3

[11] = test system: A549; experiment: MTT cell viability, A549; assay type: cell-based; conditions: Homo sapiens, lung cancer, 48 h of drug treatment, average of three experiments
Text: as §3

[12] = test system: HEP3B; experiment: MTT cell viability, HEP3B; assay type: cell-based; conditions: Homo sapiens, liver cancer, 48 h of drug treatment, average of three experiments
Text: as §3

[13] = test system: MCF-7; experiment: MTT cell viability, MCF-7; assay type: cell-based; conditions: Homo sapiens, MCF7; breast cancer; 48 h of drug treatment; average of three experiments
Text: as §3

[14] = test system: MRSA-1 (clinical isolate); experiment: MIC broth microdilution, MRSA-1; assay type: cell-based, Staphylococcus aureus; conditions: Staphylococcus aureus, MRSA; overnight incubation, Mueller-Hinton broth; read-out: MIC MRSA-1 (clinical isolate)
Experimental: as §1, §2

[15] = test system: MRSA-2 (clinical isolate); experiment: MIC broth microdilution, MRSA-2; assay type: cell-based, Staphylococcus aureus; conditions: Staphylococcus aureus, MRSA; overnight incubation, Mueller-Hinton broth; read-out: MIC MRSA-2 (clinical isolate)
Experimental: as §1, §2

[16] = test system: MRSA-3 (clinical isolate); experiment: MIC broth microdilution, MRSA-3; assay type: cell-based, Staphylococcus aureus; conditions: Staphylococcus aureus, MRSA; overnight incubation, Mueller-Hinton broth; read-out: MIC MRSA-3 (clinical isolate)
Experimental: as §1, §2

[17] = test system: MRSA-ATCC700699 (VISA); experiment: MIC broth microdilution, MRSA ATCC700699 (VISA); assay type: cell-based, Staphylococcus aureus
Experimental: as §1, §2

[18] = test system: E. coli CDC-AR-0346 (ESBL, colistin resistant); experiment: MIC broth microdilution, E. coli CDC-AR-0346; assay type: cell-based, Escherichia coli
Experimental: as §1, §2

SMILES: O=C(O)c1cn(C2CC2)c2cc(N3CCNCC3)c(F)cc2c1=O [Ciprofloxacin, reference compound]
MIC [1]: 0.3 µg/mL (≈ 0.905 µM) | MIC [2]: 0.3 µg/mL (≈ 0.905 µM) | MIC [3]: < 0.02 µg/mL | MIC [4]: 100 µg/mL (≈ 302 µM) | MIC [5]: 0.625 µg/mL (≈ 1.89 µM) | MIC [6]: 50 µg/mL (≈ 151 µM) | MIC [7]: 0.3 to 32 µg/mL (≈ 0.905 to 96.6 µM) | MIC [8]: 16 to 100 µg/mL (≈ 48.3 to 302 µM)

IC50 [9]: 3.02 ± 1.2 µM | IC50 [10]: 4.625 ± 0.04 µM | IC50 [11]: 7.44 ± 0.04 µM | IC50 [12]: 3.597 ± 0.03 µM | IC50 [13]: 5.34 ± 1.8 µM | MIC [14]: 1.56 µg/mL (≈ 3.33 µM) | MIC [15]: 1.56 µg/mL (≈ 3.33 µM) | MIC [16]: 1.56 µg/mL (≈ 3.33 µM) | MIC [1]: 1.56 µg/mL (≈ 3.33 µM) | MIC [2]: 1.56 µg/mL (≈ 3.33 µM) | MIC ([17]; Staphylococcus aureus, strain intermediately resistant to vancomycin, overnight incubation, read-out: MIC MRSA-ATCC700699 (VISA)): 1.56 µg/mL (≈ 3.33 µM) | MIC times less than the MIC of vancomycin ([17]; VISA strain ATCC 700699, vancomycin 8 μg/mL): ~5 times | MIC [3]: 6.25 µg/mL (≈ 13.3 µM) | MIC [4]: 6.25 to 12.5 µg/mL (≈ 13.3 to 26.7 µM) | MIC E. coli ATCC BAA2469 (NDM-1 carbapenem-resistant) ([4]; MDR): 6.25 µg/mL (≈ 13.3 µM) | MIC fold higher than that of colistin ([18]; E. coli CDC-AR-0346, colistin 6.25 μg/mL): 2 fold | MIC ([18]; Escherichia coli, MDR, overnight incubation): 12.5 µg/mL (≈ 26.7 µM) | MIC [5]: 6.25 µg/mL (≈ 13.3 µM) | MIC fold below that of meropenem ([6]; Acinetobacter baumannii ATCC BAA1605, meropenem 12.5 μg/mL): 2 fold | MIC [6]: 6.25 µg/mL (≈ 13.3 µM) | MIC [7]: 1.56 µg/mL (≈ 3.33 µM)
SMILES: Fc1ccc2c3c4n(c2c1)[C@@]1(C=C/C(=N\Nc2ccc(C(F)(F)F)cc2)CC1)CC[C@@H]4NCC3 [Compound 1g]
